# Data from patent US10227351B2, “Salt and polymorphic forms of (3R,4S)-L-((4-amino-5H-pyrrolo[3,2,-D]pyrimidin-7-yl)methyl)-4(methylthiomethyl)pyrodin-3-ol(MTDIA)” (VICTORIA LINK LIMITED, priority 2012, dated 2019).
# Experiment: Stated properties of the phosphate salt form (no method described)
# Format: physicochemical
# Details: comparator not stated in that sentence, no data given
compound,measurement,value
"CSC[C@H]1CN(Cc2c[nH]c3c(N)ncnc23)C[C@@H]1O [(3R,4S)-1-((4-amino-5H-pyrrolo[3,2-d]pyrimidin-7-yl)methyl)-4-(methylthiomethyl)pyrrolidin-3-ol phosphate]",solubility,improved
same,stability,improved
